Target: Sodium-dependent noradrenaline transporter (Homo sapiens, UniProt P23975)
Assay: biochemical
Description: Displacement of [125I]RTI-55 from human NET expressed in MDCK cell membrane

Sequence of Sodium-dependent noradrenaline transporter (P23975 whole entry): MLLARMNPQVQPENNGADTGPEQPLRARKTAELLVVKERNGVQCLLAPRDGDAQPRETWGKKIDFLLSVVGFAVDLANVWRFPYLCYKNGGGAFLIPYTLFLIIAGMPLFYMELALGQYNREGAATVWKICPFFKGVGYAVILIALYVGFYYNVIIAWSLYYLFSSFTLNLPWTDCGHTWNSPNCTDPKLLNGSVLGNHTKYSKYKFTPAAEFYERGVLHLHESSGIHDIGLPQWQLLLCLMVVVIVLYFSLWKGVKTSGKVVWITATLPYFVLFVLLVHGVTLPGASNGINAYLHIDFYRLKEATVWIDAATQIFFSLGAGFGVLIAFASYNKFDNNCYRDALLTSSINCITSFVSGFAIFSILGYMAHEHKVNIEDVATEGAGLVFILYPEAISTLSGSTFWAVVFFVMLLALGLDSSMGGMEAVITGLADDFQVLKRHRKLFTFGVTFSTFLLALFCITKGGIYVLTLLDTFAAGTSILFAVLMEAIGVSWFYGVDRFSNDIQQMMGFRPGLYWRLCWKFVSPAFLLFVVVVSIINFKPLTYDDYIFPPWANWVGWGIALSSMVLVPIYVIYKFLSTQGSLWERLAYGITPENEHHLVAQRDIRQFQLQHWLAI

Compound | IC50 [µM]
OC[C@@H]1OC[C@@H](O[C@@H]2O[C@@H](COCc3ccccc3)[C@@H](O)[C@@H](O)[C@@H]2O)[C@H](O)[C@H]1O [POLYGALATENOSIDE A] | 30
OC[C@@H]1OC[C@@H](O[C@@H]2O[C@@H](CO)[C@@H](O)[C@@H](OCc3ccccc3)[C@@H]2O)[C@H](O)[C@H]1O [POLYGALATENOSIDE B] | 6.04
